Measurements reported in patent publication US8685724B2, “In vitro techniques for use with stem cells” (Kwalata Trading Limited, priority 2004, dated 2014).

Columns and labels:
first-pass cells [1] = experiment: Enrichment of EPCs from first-pass cells on plasma-coated flasks in the presence of 17-β-estradiol, flow-cytometry staining; assay type: cell-based, human; settings: 0.002-2 microgram/ml 17-β-Estradiol, 5-20% autologous serum, VEGF, Heparin, 3 experiments
Description: Coating T-75 Flasks with Autologous Plasma Example 3 for High % Serum Medium Culturing Collection of Cells for FACS Staining FACS Staining In a set of separate experiments, enrichment of EPCs from first-pass cells was evaluated following in-vitro growth on autologous plasma-coated T-75 Flasks in the presence of medium containing autologous serum, VEGF, 17-beta-estradiol and Heparin. These were experiments conducted with human blood, using the protocol described hereinabove. […] FACS staining results of cells cultured in media containing 5-20% autologous serum (typically 10%), 1, 2, 10, or 20 ng/ml VEGF, 0.002-2 microgram/ml 17-β-Estradiol and 5-25 IU/ml Heparin are summarized. The following surface markers were analyzed: CD45 (a pan-lymphocyte marker), the stem/progenitor cell markers CD34 and CD117, and the EPC/endothelial cell markers CD133, and KDR (VEGF-R).

first-pass cells [2] = experiment: Enrichment of EPCs from first-pass cells on plasma-coated flasks in the presence of progesterone, flow-cytometry staining; assay type: cell-based, human; settings: 0.02-2 microgram/ml progesterone, 5-20% autologous serum, VEGF, Heparin, 3 experiments
Description: Coating T-75 Flasks with Autologous Plasma Example 2 for High % Serum Medium Culturing Collection of Cells for FACS Staining FACS Staining In a set of separate experiments, enrichment of EPCs from first-pass cells was evaluated following in-vitro growth on autologous plasma-coated T-75 Flasks in the presence of medium containing autologous serum, VEGF, progesterone and Heparin. These experiments were conducted with human blood, using the protocol described hereinabove. […] FACS staining results of cells cultured in media containing 5-20% autologous serum (typically 10%), 1, 2, 10, or 20 ng/ml VEGF, 0.02-2 microgram/ml progesterone and 5-25 IU/ml Heparin are summarized. The following surface markers were analyzed: CD45 (a pan-lymphocyte marker), the stem/progenitor cell markers CD34 and CD117, and the EPC/endothelial cell markers CD133 and KDR (VEGF-R).

Row | SMILES | CD34 average percentage staining (first-pass cells [1]) [%] | CD45 average percentage staining (first-pass cells [1]) [%] | CD117 average percentage staining (first-pass cells [1]) [%] | CD133 average percentage staining (first-pass cells [1]) [%] | KDR average percentage staining (first-pass cells [1]) [%] | CD34 AVG percentage staining (first-pass cells [2]) [%] | CD45 AVG percentage staining (first-pass cells [2]) [%] | CD117 AVG percentage staining (first-pass cells [2]) [%] | CD133 AVG percentage staining (first-pass cells [2]) [%] | KDR AVG percentage staining (first-pass cells [2]) [%]
1 | C[C@]12CC[C@@H]3c4ccc(O)cc4CC[C@H]3[C@@H]1CC[C@@H]2O [17-β-estradiol] | 4.12 | 96.14 | 1.41 | 1.77 | 0.28 | – | – | – | – | –
2 | CC(=O)[C@H]1CC[C@H]2[C@@H]3CCC4=CC(=O)CC[C@]4(C)[C@H]3CC[C@]12C [progesterone] | – | – | – | – | – | 21.22 | 94.82 | 5.54 | 5.72 | 1.05
